Test results: ChEMBL document CHEMBL4190316, “Synthesis and biological evaluation of 4-biphenylamino-5-halo-2(5H)-furanones as potential anticancer agents” (Eur J Med Chem, 2017)
One block for each compound: values may come before it. Activity calls are given as the source filed them. No cut-off for these calls is given here.

Columns and labels:
C6 = test: Cytotoxicity against rat C6 cells assessed as reduction in cell viability after 72 hrs by MTT assay; type: functional, cell-based; details: C6, 72 h
HaCaT = test: Cytotoxicity against human HaCaT cells assessed as reduction in cell viability after 72 hrs by MTT assay; type: cell-based
CNE = test: Cytotoxicity against human CNE1 cells assessed as reduction in cell viability after 72 hrs by MTT assay; type: functional, cell-based
[1] = Cytotoxicity against human NCI-EC1 cells assessed as reduction in cell viability after 72 hrs by MTT assay; type: functional, cell-based
MDA-MB-231 = test: Cytotoxicity against human MDA-MB-231 cells assessed as reduction in cell viability after 72 hrs by MTT assay; type: functional, cell-based; details: MDA-MB-231, 72 h
MCF7 [2] = test: Cytotoxicity against human MCF7 cells assessed as reduction in cell viability after 72 hrs by MTT assay; type: functional, cell-based; details: MCF7, 72 h
HepG2 = test: Cytotoxicity against human HepG2 cells assessed as reduction in cell viability after 72 hrs by MTT assay; type: functional, cell-based; details: HepG2, 72 h
[3] = Octanol-water partition coefficient, log P of the compound at 10 mM after 24 hrs by UV-vis spectroscopic method; type: physicochemical
MCF7 [4] = test: Cell cycle arrest in human MCF7 cells assessed as accumulation at G1 phase at 10 uM after 72 hrs by propidium iodide staining based flow cytometry (reference value: 66.42%); type: functional
MCF7 [5] = test: Cell cycle arrest in human MCF7 cells assessed as accumulation at G1 phase at 20 uM after 72 hrs by propidium iodide staining based flow cytometry (reference value: 66.42%); type: functional
MCF7 [6] = test: Cell cycle arrest in human MCF7 cells assessed as accumulation at G1 phase at 40 uM after 72 hrs by propidium iodide staining based flow cytometry (reference value: 66.42%); type: functional
MCF7 [7] = test: Cell cycle arrest in human MCF7 cells assessed as accumulation at G2/M phase at 10 uM after 72 hrs by propidium iodide staining based flow cytometry (reference value: 17.99%); type: functional
MCF7 [8] = test: Cell cycle arrest in human MCF7 cells assessed as accumulation at G2/M phase at 20 uM after 72 hrs by propidium iodide staining based flow cytometry (reference value: 17.99%); type: functional
MCF7 [9] = test: Cell cycle arrest in human MCF7 cells assessed as accumulation at G2/M phase at 40 uM after 72 hrs by propidium iodide staining based flow cytometry (reference value: 17.99%); type: functional
MCF7 [10] = test: Cell cycle arrest in human MCF7 cells assessed as accumulation at S phase at 10 uM after 72 hrs by propidium iodide staining based flow cytometry (reference value: 15.59%); type: functional
MCF7 [11] = test: Cell cycle arrest in human MCF7 cells assessed as accumulation at S phase at 20 uM after 72 hrs by propidium iodide staining based flow cytometry (reference value: 15.59%); type: functional
MCF7 [12] = test: Cell cycle arrest in human MCF7 cells assessed as accumulation at S phase at 40 uM after 72 hrs by propidium iodide staining based flow cytometry (reference value: 15.59%); type: functional
MCF7 [13] = test: Cell cycle arrest in human MCF7 cells assessed as accumulation at sub-G1 phase at 10 to 40 uM after 24 to 72 hrs by propidium iodide staining based flow cytometry; type: functional
MCF7 [14] = test: Cell cycle arrest in human MCF7 cells assessed as accumulation at G1 phase at 10 uM after 24 hrs by propidium iodide staining based flow cytometry (reference value: 69.92%); type: functional
MCF7 [15] = test: Cell cycle arrest in human MCF7 cells assessed as accumulation at G1 phase at 20 uM after 24 hrs by propidium iodide staining based flow cytometry (reference value: 69.92%); type: functional
MCF7 [16] = test: Cell cycle arrest in human MCF7 cells assessed as accumulation at G1 phase at 40 uM after 24 hrs by propidium iodide staining based flow cytometry (reference value: 69.92%); type: functional
MCF7 [17] = test: Cell cycle arrest in human MCF7 cells assessed as accumulation at G2/M phase at 10 uM after 24 hrs by propidium iodide staining based flow cytometry (reference value: 6.91%); type: functional
MCF7 [18] = test: Cell cycle arrest in human MCF7 cells assessed as accumulation at G2/M phase at 20 uM after 24 hrs by propidium iodide staining based flow cytometry (reference value: 6.91%); type: functional
MCF7 [19] = test: Cell cycle arrest in human MCF7 cells assessed as accumulation at G2/M phase at 40 uM after 24 hrs by propidium iodide staining based flow cytometry (reference value: 6.91%); type: functional
MCF7 [20] = test: Cell cycle arrest in human MCF7 cells assessed as accumulation at S phase at 10 uM after 24 hrs by propidium iodide staining based flow cytometry (reference value: 23.16%); type: functional
MCF7 [21] = test: Cell cycle arrest in human MCF7 cells assessed as accumulation at S phase at 20 uM after 24 hrs by propidium iodide staining based flow cytometry (reference value: 23.16%); type: functional
MCF7 [22] = test: Cell cycle arrest in human MCF7 cells assessed as accumulation at S phase at 40 uM after 24 hrs by propidium iodide staining based flow cytometry (reference value: 23.16%); type: functional
Quadruplex DNA [23] = test: Effect on conformation of c-Myc G-quadruplex DNA (unknown origin) at 1 mM measured every 3 mins by CD spectroscopic analysis; type: nucleic-acid assay
MCF7 [24] = test: Induction of apoptosis in human MCF7 cells assessed as live cells at 10 uM after 72 hrs by Annexin-V/PI staining based flow cytometry (reference value: 97.7%); type: functional
MCF7 [25] = test: Induction of apoptosis in human MCF7 cells assessed as live cells at 20 uM after 72 hrs by Annexin-V/PI staining based flow cytometry (reference value: 97.7%); type: functional
MCF7 [26] = test: Induction of apoptosis in human MCF7 cells assessed as live cells at 40 uM after 72 hrs by Annexin-V/PI staining based flow cytometry (reference value: 97.7%); type: functional
MCF7 [27] = test: Induction of apoptosis in human MCF7 cells assessed as early apoptotic cells at 10 uM after 72 hrs by Annexin-V/PI staining based flow cytometry (reference value: 0.28%); type: functional
MCF7 [28] = test: Induction of apoptosis in human MCF7 cells assessed as early apoptotic cells at 20 uM after 72 hrs by Annexin-V/PI staining based flow cytometry (reference value: 0.28%); type: functional
MCF7 [29] = test: Induction of apoptosis in human MCF7 cells assessed as early apoptotic cells at 40 uM after 72 hrs by Annexin-V/PI staining based flow cytometry (reference value: 0.28%); type: functional
MCF7 [30] = test: Induction of apoptosis in human MCF7 cells assessed as late apoptotic cells at 10 uM after 72 hrs by Annexin-V/PI staining based flow cytometry (reference value: 0.60%); type: functional
MCF7 [31] = test: Induction of apoptosis in human MCF7 cells assessed as late apoptotic cells at 20 uM after 72 hrs by Annexin-V/PI staining based flow cytometry (reference value: 0.60%); type: functional
MCF7 [32] = test: Induction of apoptosis in human MCF7 cells assessed as late apoptotic cells at 40 uM after 72 hrs by Annexin-V/PI staining based flow cytometry (reference value: 0.60%); type: functional
MCF7 [33] = test: Induction of apoptosis in human MCF7 cells assessed as necrotic cells at 10 uM after 72 hrs by Annexin-V/PI staining based flow cytometry (reference value: 1.36%); type: functional
MCF7 [34] = test: Induction of apoptosis in human MCF7 cells assessed as necrotic cells at 20 uM after 72 hrs by Annexin-V/PI staining based flow cytometry (reference value: 1.36%); type: functional
MCF7 [35] = test: Induction of apoptosis in human MCF7 cells assessed as necrotic cells at 40 uM after 72 hrs by Annexin-V/PI staining based flow cytometry (reference value: 1.36%); type: functional
MCF7 [36] = test: Induction of apoptosis in human MCF7 cells assessed as live cells at 10 uM after 24 hrs by Annexin-V/PI staining based flow cytometry (reference value: 94.88%); type: functional
MCF7 [37] = test: Induction of apoptosis in human MCF7 cells assessed as live cells at 20 uM after 24 hrs by Annexin-V/PI staining based flow cytometry (reference value: 94.88%); type: functional
MCF7 [38] = test: Induction of apoptosis in human MCF7 cells assessed as live cells at 40 uM after 24 hrs by Annexin-V/PI staining based flow cytometry (reference value: 94.88%); type: functional
MCF7 [39] = test: Induction of apoptosis in human MCF7 cells assessed as early apoptotic cells at 10 uM after 24 hrs by Annexin-V/PI staining based flow cytometry (reference value: 0.13%); type: functional
MCF7 [40] = test: Induction of apoptosis in human MCF7 cells assessed as early apoptotic cells at 20 uM after 24 hrs by Annexin-V/PI staining based flow cytometry (reference value: 0.13%); type: functional
MCF7 [41] = test: Induction of apoptosis in human MCF7 cells assessed as early apoptotic cells at 40 uM after 24 hrs by Annexin-V/PI staining based flow cytometry (reference value: 0.13%); type: functional
MCF7 [42] = test: Induction of apoptosis in human MCF7 cells assessed as late apoptotic cells at 10 uM after 24 hrs by Annexin-V/PI staining based flow cytometry (reference value: 0.96%); type: functional
MCF7 [43] = test: Induction of apoptosis in human MCF7 cells assessed as late apoptotic cells at 20 uM after 24 hrs by Annexin-V/PI staining based flow cytometry (reference value: 0.96%); type: functional
MCF7 [44] = test: Induction of apoptosis in human MCF7 cells assessed as late apoptotic cells at 40 uM after 24 hrs by Annexin-V/PI staining based flow cytometry (reference value: 0.96%); type: functional
MCF7 [45] = test: Induction of apoptosis in human MCF7 cells assessed as necrotic cells at 10 uM after 24 hrs by Annexin-V/PI staining based flow cytometry (reference value: 4.03%); type: functional
MCF7 [46] = test: Induction of apoptosis in human MCF7 cells assessed as necrotic cells at 20 uM after 24 hrs by Annexin-V/PI staining based flow cytometry (reference value: 4.03%); type: functional
MCF7 [47] = test: Induction of apoptosis in human MCF7 cells assessed as necrotic cells at 40 uM after 24 hrs by Annexin-V/PI staining based flow cytometry (reference value: 4.03%); type: functional
Quadruplex DNA [48] = test: Binding affinity to c-Myc G-quadruplex DNA (unknown origin) at 20 uM incubated for 3 mins by electronic absorption spectra method; type: nucleic-acid assay
Quadruplex DNA [49] = test: Stabilization of c-Myc G-quadruplex DNA in human MCF7 cells assessed as downregulation of c-Myc protein expression after 72 hrs by Western blot method; type: cell-based
Quadruplex DNA [50] = test: Binding affinity to c-Myc G-quadruplex DNA (unknown origin) assessed as hypochromism at 20 uM incubated for 3 mins by electronic absorption spectra method; type: nucleic-acid assay
MCF7 [51] = test: Cell cycle arrest in human MCF7 cells assessed as accumulation at G2/M phase after 72 hrs by propidium iodide staining based flow cytometry; type: functional
Quadruplex DNA [52] = test: Binding affinity to c-Myc G-quadruplex DNA (unknown origin) at 20 uM incubated for 2 mins by fluorescence emission spectra method; type: nucleic-acid assay

logP at 24 h, 10000 µM [3]: 1.5
SMILES: COC1OC(=O)C(Cl)=C1Nc1ccc(-c2ccccc2)cc1 (stereo not drawn)
IC50 (C6): 36.3 µM
IC50 (HaCaT): 41.2 µM
IC50 (CNE): 53.5 µM
IC50 [1]: 32.2 µM
IC50 (MDA-MB-231): 66.5 µM
IC50 (MCF7 [2]): 40.6 µM
IC50 (HepG2): 35.8 µM

logP at 24 h, 10000 µM [3]: 1.46
SMILES: COC1OC(=O)C(Br)=C1Nc1ccc(-c2ccc(N)cc2)cc1 (stereo not drawn)
IC50 (C6): 64.2 µM
IC50 (HaCaT): 69.6 µM
IC50 (CNE): 68.6 µM
IC50 [1]: > 100 µM
IC50 (MDA-MB-231): > 100 µM
IC50 (MCF7 [2]): 59.6 µM
IC50 (HepG2): 82.3 µM

logP at 24 h, 10000 µM [3]: 1.76
Activity (Quadruplex DNA [23]): inactive
K (Quadruplex DNA [48]): 1.6 ×10⁷ /M
Activity (Quadruplex DNA [50]): 28%
Activity (Quadruplex DNA [52]): Active
SMILES: CC(=O)OC1OC(=O)C(Br)=C1Nc1ccc(-c2ccc(N)cc2)cc1 (stereo not drawn)
IC50 (C6): 15.4 µM
IC50 (HaCaT): > 100 µM
IC50 (CNE): 49.4 µM
IC50 [1]: 55.1 µM
IC50 (MDA-MB-231): 33.7 µM
IC50 (MCF7 [2]): 11.8 µM
IC50 (HepG2): 35.3 µM
Activity (MCF7 [4]): 63.91%
Activity (MCF7 [5]): 61.38%
Activity (MCF7 [6]): 44.37%
Activity (MCF7 [7]): 20.53%
Activity (MCF7 [8]): 23.44%
Activity (MCF7 [9]): 35.13%
Activity (MCF7 [10]): 15.56%
Activity (MCF7 [11]): 15.18%
Activity (MCF7 [12]): 20.5%
Activity (MCF7 [13]): inactive
Activity (MCF7 [14]): 66.44%
Activity (MCF7 [15]): 68.3%
Activity (MCF7 [16]): 55.63%
Activity (MCF7 [17]): 9.61%
Activity (MCF7 [18]): 10.59%
Activity (MCF7 [19]): 17.92%
Activity (MCF7 [20]): 23.95%
Activity (MCF7 [21]): 21.11%
Activity (MCF7 [22]): 26.45%
Activity (MCF7 [24]): 95.8%
Activity (MCF7 [25]): 96.19%
Activity (MCF7 [26]): 93.39%
Activity (MCF7 [27]): 0.32%
Activity (MCF7 [28]): 0.55%
Activity (MCF7 [29]): 0.47%
Activity (MCF7 [30]): 0.67%
Activity (MCF7 [31]): 0.67%
Activity (MCF7 [32]): 1.19%
Activity (MCF7 [33]): 3.2%
Activity (MCF7 [34]): 2.59%
Activity (MCF7 [35]): 4.94%
Activity (MCF7 [36]): 96.89%
Activity (MCF7 [37]): 95.21%
Activity (MCF7 [38]): 95.28%
Activity (MCF7 [39]): 0.16%
Activity (MCF7 [40]): 0.13%
Activity (MCF7 [41]): 4.08%
Activity (MCF7 [42]): 0.13%
Activity (MCF7 [43]): 0.07%
Activity (MCF7 [44]): 0.5%
Activity (MCF7 [45]): 2.82%
Activity (MCF7 [46]): 4.59%
Activity (MCF7 [47]): 0.14%
Activity (Quadruplex DNA [49]): Dose-dependent effect
Activity (MCF7 [51]): Dose-dependent effect
